Assay results: patent publication US20250041284A1, “TREATMENT OF NEUROLOGICAL DISORDERS” (Praxis Precision Medicines, Inc., priority 2022, published 2025)
“Also recorded” adds a separate entry of the source.

Tests used:
[1] = molecular target: T1, human NaV1.6 (Homo sapiens, UniProt Q9UQD0); assay: Peak INa use-dependent block (UDB-10 Hz), automated patch clamp in HEK cells; assay type: cell-based
T1 construct: HEK-293 cell lines stably expressing human NaV1.6 (NP_055006) were used; expressed in transfected cells

[2] = molecular target: T1, human NaV1.6; assay: Persistent (late) INa inhibition, ATX-II activated, automated patch clamp in HEK cells; assay type: cell-based
[3] = system: MES-induced tonic hindlimb extension in male CD-1 mice; assay: MES acute seizure model, protection from tonic hindlimb extension (Example 9); assay type: in vivo, mouse
Procedure: Male CD-1 mice (Vital River, Beijing, China) approximately 6 weeks old were obtained for the study. Body weights were between 20.5 grams and 38.5 grams at the time the experiments were carried out. […] Food and water were available ad libitum.
Treatment was conducted using Compound 1 and 35% 2-hydroxypropyl-β-cyclodextrin (35% HPBCD, used as a negative control). Compound 1 stock solution was prepared fresh each experiment day in 35% HPBCD and protected from light. The stock solution was diluted with vehicle for lower doses.
Mice were brought to the test room at least one hour before the start of the experiment. Mice were administered valproate (VPA; 400 mg/kg, intraperitoneally); or vehicle (35% HPBCD, 10 mL/kg, intraperitoneally); or Compound 1 (0.3 mg/kg, 1 mg/kg, 3 mg/kg or 10 mg/kg, orally) 30 minutes prior to the MES test.
The electroshock apparatus was set to deliver a 50 mA square-wave stimulus, with a 0.8 second duration, a pulse width of 10 milliseconds, and a frequency of 50 Hz. A pair of custom stainless-steel electrodes were soaked in 0.2% agar, and then the subject received bilateral transauricular stimulation through ear-clip electrodes. During the stimulation, mice were manually restrained then released immediately into an observation cage where they were monitored continuously for 60 seconds by an observer blinded to treatment group.
Mice were anesthetized with CO2 and terminal plasma and brain tissue samples were collected. […] The supernatant plasma was pipetted into Eppendorf tubes.
All statistical analyses were conducted using GraphPad Prism 9.3. Means were combined and standard error was calculated using the Satterthwaite Approximation to combine standard deviations. […] ED50 and EC50 values were calculated from these fit curves.

T1 sequence (Q9UQD0 whole entry): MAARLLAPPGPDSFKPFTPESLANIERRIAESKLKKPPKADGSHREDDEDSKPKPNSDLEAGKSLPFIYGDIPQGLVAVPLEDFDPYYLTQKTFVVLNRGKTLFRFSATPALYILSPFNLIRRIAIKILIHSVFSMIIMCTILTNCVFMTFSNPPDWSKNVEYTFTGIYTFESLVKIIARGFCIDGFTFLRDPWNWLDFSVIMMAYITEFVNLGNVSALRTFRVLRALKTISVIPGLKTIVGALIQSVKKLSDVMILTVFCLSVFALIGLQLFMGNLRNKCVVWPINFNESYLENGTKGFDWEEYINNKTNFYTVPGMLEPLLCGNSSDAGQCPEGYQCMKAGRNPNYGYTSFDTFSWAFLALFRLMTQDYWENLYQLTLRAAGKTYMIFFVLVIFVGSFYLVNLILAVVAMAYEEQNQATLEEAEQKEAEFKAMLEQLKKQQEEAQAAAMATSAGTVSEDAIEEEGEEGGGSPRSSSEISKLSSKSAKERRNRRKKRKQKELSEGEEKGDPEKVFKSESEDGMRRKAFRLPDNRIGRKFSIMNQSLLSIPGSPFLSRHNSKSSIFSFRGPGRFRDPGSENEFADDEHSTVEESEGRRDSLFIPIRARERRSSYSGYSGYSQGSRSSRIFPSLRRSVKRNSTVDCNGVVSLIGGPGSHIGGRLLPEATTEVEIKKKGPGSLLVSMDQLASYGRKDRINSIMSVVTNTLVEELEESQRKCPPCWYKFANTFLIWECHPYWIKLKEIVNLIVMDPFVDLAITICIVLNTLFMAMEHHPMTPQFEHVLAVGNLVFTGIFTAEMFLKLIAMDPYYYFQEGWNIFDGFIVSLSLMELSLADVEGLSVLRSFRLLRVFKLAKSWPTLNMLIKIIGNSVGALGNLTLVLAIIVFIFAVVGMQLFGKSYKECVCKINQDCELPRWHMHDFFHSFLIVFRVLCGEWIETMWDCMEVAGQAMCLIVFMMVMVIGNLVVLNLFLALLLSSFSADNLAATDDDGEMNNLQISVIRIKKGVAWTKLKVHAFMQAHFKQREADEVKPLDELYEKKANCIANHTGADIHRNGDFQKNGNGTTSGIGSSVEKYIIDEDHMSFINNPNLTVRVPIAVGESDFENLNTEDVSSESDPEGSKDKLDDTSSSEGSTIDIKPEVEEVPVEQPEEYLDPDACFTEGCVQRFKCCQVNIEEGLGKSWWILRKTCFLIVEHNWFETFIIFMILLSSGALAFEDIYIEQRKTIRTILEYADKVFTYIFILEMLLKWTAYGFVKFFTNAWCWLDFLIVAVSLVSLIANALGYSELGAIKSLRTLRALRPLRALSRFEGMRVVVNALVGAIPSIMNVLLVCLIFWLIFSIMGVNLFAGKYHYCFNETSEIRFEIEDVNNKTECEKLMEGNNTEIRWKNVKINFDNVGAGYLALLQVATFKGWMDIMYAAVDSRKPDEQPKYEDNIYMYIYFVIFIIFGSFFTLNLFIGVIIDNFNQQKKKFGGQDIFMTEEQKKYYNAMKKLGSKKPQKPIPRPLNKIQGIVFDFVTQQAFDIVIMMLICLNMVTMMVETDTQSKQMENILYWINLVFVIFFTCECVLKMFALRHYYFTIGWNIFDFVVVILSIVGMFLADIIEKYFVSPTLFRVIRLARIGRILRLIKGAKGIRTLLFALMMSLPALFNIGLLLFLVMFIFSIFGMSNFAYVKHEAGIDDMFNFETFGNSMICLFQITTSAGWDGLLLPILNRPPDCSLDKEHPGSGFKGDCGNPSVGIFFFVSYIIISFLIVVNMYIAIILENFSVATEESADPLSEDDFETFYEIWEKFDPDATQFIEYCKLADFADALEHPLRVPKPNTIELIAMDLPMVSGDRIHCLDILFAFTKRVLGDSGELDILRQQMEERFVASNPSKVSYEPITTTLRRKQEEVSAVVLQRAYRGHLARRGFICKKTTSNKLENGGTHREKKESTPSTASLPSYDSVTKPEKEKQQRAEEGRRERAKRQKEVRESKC

With `CCOC(F)(F)c1nnc2ccc(-c3cnc(OCC(F)(F)F)c(F)c3)cn12` [Compound 1] as the molecule, how does the Emax ([1]; HEK293, fitted maximum of Hill equation, read-out: Peak INa UDB-10 Hz Max effect) read?
The Emax was 100%.

What about the “UDB preference to TB” value ([1]; TB IC50 / UDB IC50) of the same molecule?
The value was 44 ×.

And the “Ratio to Pers. INa (Peak INa UDB-10 Hz)” value ([1]; UDB IC50 / persistent INa IC50)?
Its value is 1.6.

What about the “activity dependent block of peak INa” value ([1]; in words, FIGS. 7A-7C) of the same molecule?
Its value is “enhanced activity dependent inhibition of peak INa”.

And the “Peak INa UDB-10 Hz Hill slope” value ([1]; use-dependent block 10 Hz)?
The value was “(0.7)”.

And the IC50 ([1]; use-dependent block, Vm -120 mV, 10 Hz)?
Its IC50 is 0.2 µM.

And the “Persistent INa potency relative to the other tested INa blocking agents” value ([2]; fold more potent)?
Its value is “at least 550 ×”.

And the “Persistent INa Hill slope” value ([2]; hNaV1.6 in HEK cells, ATX-II)?
Its value is “(1.4)”.

And the IC50 ([2]; hNaV1.6 in HEK cells, ATX-II, Vm -120 mV, 200 ms)?
Its IC50 is 0.128 µM.

What about the “preference for persistent INa relative to peak INa” value ([2]; in words, FIGS. 1A-1D) of the same molecule?
The value was “demonstrated preference for persistent INa relative to peak INa for all assay conditions”.

What about the “sedation or ataxia before MES test” value ([3]; 10 mg/kg orally) of the same molecule?
Its value is “some mice showed sedation or ataxia; also recorded: six of thirty mice showed mild to moderate sedation”.

And the “sedation or ataxia before MES test” value ([3]; 0.3 to 3 mg/kg orally)?
The value was “No sedation or ataxia was observed; also recorded: No sedation was observed”.

And the ED50 ([3]; Mus musculus, administered dose)?
The ED50 was 0.42 mg/kg.
